{
  "source": "patent EP0082385A1",
  "about": "“1-(3-Nitrophenyl)pyrido(2,3-d)pyrimidine-2,4(1H,3H) diones and 1-(3-nitrophenyl)quinazoline-2-4(1H,3H)diones as cutaneous medicaments” (Troponwerke GmbH & Co. KG, priority 1981, dated 1983)",
  "key": {"[1]": {"system": "durch Kaolin induzierten Ödems der Rattenpfote", "assay": "Kaolin-induced rat paw oedema, substance applied to shorn back skin or given p.o.", "format": "in vivo, Ratte", "conditions": "for ED50: 5 h"}, "[2]": {"system": "emetische Erscheinungen beim Hund", "conditions": "dog, in vivo", "method": "Die Vermeidung der Nebenwirkungen durch cutane Applikation von Verb. 1 ist nachfolgend beispielhaft für Verb. 1 beschrieben. • 1. Sowohl nach oraler als auch intramuskulärer Applikation von Verb. 1 treten bereits ab einer Dosis von etwa 0.1 mg/kg beim Hund starke emetische Erscheinungen auf. Diese emetische Wirkung beim Hund bleibt auch nach cutaner Applikation von 5 mg/kg der Substanz aus. • 2. Verb. […] Verb."}, "[3]": {"system": "Carrageenan-Pfotenödems der Ratte", "assay": "Carrageenan rat paw oedema, preparations of TVX", "format": "in vivo", "source_text": "Aufbereitung von TVX - Hemmung des Carrageenan-Pfotenödems der Ratte"}, "Tachyphylaxie bei Ratten": {"system": "Tachyphylaxie bei Ratten", "assay": "Tachyphylaxis (loss of oedema-inhibiting effect) after repeated dosing in rats", "format": "in vivo"}, "[4]": {"conditions": "0,3 mg/kg cutan, in Dimethylsulfoxid, rat, 5 h after oedema provocation"}, "[5]": {"conditions": "po, p.o., rat, read-out: DE50 (mg/kg) Kaolin-ödem p.o."}},
  "note": "Like-named read-outs stand apart in the source and are kept apart here.",
  "data": [
    {"compound": "COC(=O)c1ccccc1O", "note": "[Salicyclsäuremethylester, Salicylsäuremethylester, reference compound]", "values": [
      {"measurement": "% Hemmung des Kaolin-ödems", "setting": "[1]; solvent alone (without Verb. 1), cutan, rat", "result": "39.4) %"}
    ]},
    {"compound": "CCn1c(=O)c2ccccc2n(-c2cccc([N+](=O)[O-])c2)c1=O", "note": "[Verb. 1, 1-(3-Nitrophenyl)-3-ethylchinazolin-2.4(1H, 3H)-dion]", "values": [
      {"measurement": "Dosis, ab der emetische Wirkung auftritt", "setting": "[2]", "result": "> 5", "unit": "mg/kg"},
      {"measurement": "Dosis, ab der starke emetische Erscheinungen auftreten", "setting": "[2]", "result": "~0.1", "unit": "mg/kg"},
      {"measurement": "% Hemmung", "setting": "[3]; preparation: TVX 0.03, Aceton 6.97, IPM 3.00 (total 10.00)", "result": 51.3, "unit": "%"},
      {"measurement": "% Hemmung", "setting": "[3]; preparation: TVX 0.03, Aceton 9.97 (total 10.00)", "result": 41.7, "unit": "%"},
      {"measurement": "% Hemmung", "setting": "[3]; preparation: TVX 0.03, Essigsäureethylester 6.97, IPM 3.00 (total 10.00)", "result": 64.1, "unit": "%"},
      {"measurement": "% Hemmung", "setting": "[3]; preparation: TVX 0.03, Essigsäureethylester 9.97 (total 10.00)", "result": 31.0, "unit": "%"},
      {"measurement": "% Hemmung", "setting": "[3]; preparation: TVX 0.03, IPM 3.00, Tween 2.00, Isopropanol 4.97 (total 10.00)", "result": 55.1, "unit": "%"},
      {"measurement": "% Hemmung", "setting": "[3]; preparation: TVX 0.03, Milchsäureethylester 6.97, IPM 3.00 (total 10.00)", "result": 50.6, "unit": "%"},
      {"measurement": "% Hemmung", "setting": "[3]; preparation: TVX 0.03, Milchsäureethylester 9.97 (total 10.00)", "result": 42.0, "unit": "%"},
      {"measurement": "% Hemmung", "setting": "[3]; preparation: TVX 0.03, Tween 0.50, Dowanol DPM 9.47 (total 10.00)", "result": 62.7, "unit": "%"},
      {"measurement": "ödemhemmende Wirkung nach topischer Vorbehandlung", "setting": "Tachyphylaxie bei Ratten; 6 days topical pretreatment, in Dimethylsulfoxid, 0.3 mg/kg/Tag", "result": "eindeutige ödemhemmende Wirkung"},
      {"measurement": "Wirkungsverlust (Tachyphylaxie)", "setting": "Tachyphylaxie bei Ratten; cutaneous application", "result": "vollständig vermieden"},
      {"measurement": "Tachyphylaxie", "setting": "Tachyphylaxie bei Ratten; oral doses over several days, seen after three to four days", "result": "deutliche Tachyphylaxie"},
      {"measurement": "% Hemmung des Kaolin-ödems", "setting": "[1]; 0,3 mg/kg cutan, in Cremophor, rat, n = 5", "result": 14.2, "unit": "%"},
      {"measurement": "% Hemmung des Kaolin-ödems", "setting": "[1]; 0,3 mg/kg cutan, in Dimethylacetamid, rat, n = 5", "result": 50.5, "unit": "%"},
      {"measurement": "% Hemmung des Kaolin-ödems", "setting": "[1]; 0,3 mg/kg cutan, in Dimethylformamid, rat, n = 5", "result": 35.0, "unit": "%"},
      {"measurement": "% Hemmung des Kaolin-ödems", "setting": "[1]; [4]", "result": 48.3, "unit": "%"},
      {"measurement": "% Hemmung des Kaolin-ödems", "setting": "[1]; 0,3 mg/kg cutan, in Erdnußöl, rat, n = 5", "result": 16.7, "unit": "%"},
      {"measurement": "% Hemmung des Kaolin-ödems", "setting": "[1]; 0,3 mg/kg cutan, in Lutrol, rat, n = 5", "result": 18.3, "unit": "%"},
      {"measurement": "% Hemmung des Kaolin-ödems", "setting": "[1]; 0,3 mg/kg cutan, in N-Methylpyrrolidon, rat, n = 5", "result": 63.2, "unit": "%"},
      {"measurement": "% Hemmung des Kaolin-ödems", "setting": "[1]; 0,3 mg/kg cutan, in Ricinusöl, rat, n = 5", "result": 14.2, "unit": "%"},
      {"measurement": "% Hemmung des Kaolin-ödems", "setting": "[1]; 0,3 mg/kg cutan, in Salicylsäuremethylester, rat, n = 5", "result": 77.1, "unit": "%"},
      {"measurement": "ED50", "setting": "[1]; Rattus norvegicus, topical, cutan in Dimethylsulfoxid, same antiphlogistic effect as 0,3 mg/kg oral, read-out: DE50 nach cutaner Applikation in Dimethylsulfoxid", "result": 0.3, "unit": "mg/kg"},
      {"measurement": "ED50", "setting": "[1]; [5]", "result": 0.3, "unit": "mg/kg"}
    ]},
    {"compound": "O=c1c2ccccc2n(-c2cccc([N+](=O)[O-])c2)c(=O)n1CCF", "note": "[Verb. 2, 1-(3-Nitrophenyl)-3-(2-fluorethyl)-chinazolin-2,4(1H, 3H)dion]", "values": [
      {"measurement": "% Hemmung des Kaolin-ödems", "setting": "[1]; [4]", "result": 56.0, "unit": "%"},
      {"measurement": "ED50", "setting": "[1]; [5]", "result": 0.2, "unit": "mg/kg"}
    ]},
    {"compound": "CCn1c(=O)c2cccnc2n(-c2cccc([N+](=O)[O-])c2)c1=O", "note": "[Verb. 3, 1-(3-Nitrophenyl)-3-ethylpyridoL2.3-d/pyrimidin-2,4(1H, 3H)dion]", "values": [
      {"measurement": "% Hemmung des Kaolin-ödems", "setting": "[1]; [4]", "result": 79.8, "unit": "%"},
      {"measurement": "ED50", "setting": "[1]; [5]", "result": 0.1, "unit": "mg/kg"}
    ]}
  ]
}
